Counter-ions that a name gives are not always drawn.
Legend:
[1] = tested on: NCI-H292 lung cancer cells; assay: FDA drug screening, complete media vs cholesterol-free media without statin (TABLE 1); type: cell-based, human
[2] = tested on: NCI-H292 lung cancer cells; assay: FDA drug screening, complete media vs cholesterol-free media with simvastatin (TABLE 2); type: cell-based, human; settings: for Cholesterol-free media + simvastatin (0.04 μM) / Complete Media: NCI-H292 cells
[3] = NCI-H292 cells, cholesterol-free media without statin, FDA drug library screen
[4] = NCI-H292 cells, complete media, FDA drug library screen
[5] = complete vs cholesterol-free media, >0 enhanced anti-cancer activity, about 0 neutral, <0 antagonist
[6] = drug in cholesterol-free media with simvastatin 0.04 μM
[7] = complete media vs cholesterol-free media + simvastatin (0.04 μM), >0 enhanced anti-cancer activity, about 0 neutral, <0 antagonist
[8] = FDA library drug in cholesterol-free media with simvastatin 0.04 μM
[9] = FDA library drug in complete media
[10] = FDA drug library screen, cholesterol-free media with simvastatin 0.04 μM
[11] = FDA drug library screen, complete media
[12] = complete media minus cholesterol-free media + simvastatin, >0 enhanced anti-cancer activity, about 0 neutral, <0 antagonist
[13] = NCI-H292 cells, cholesterol-free media without statin
[14] = complete vs cholesterol-free media, greater than 0 enhanced anti-cancer activity, about 0 neutral, below 0 antagonists
[15] = Complete minus Cholesterol-free, greater than 0 enhanced anti-cancer activity, about 0 neutral, below 0 antagonist
[16] = NCI-H292 cells, FDA drug library screen, cholesterol-free media without statin
[17] = NCI-H292 cells, FDA drug library screen, complete media
[18] = cholesterol-free media with simvastatin 0.04 μM, cell growth value in FDA drug screen
[19] = complete media, cell growth value in FDA drug screen
[20] = cholesterol-free media with simvastatin 0.04 μM, FDA drug library screen (TABLE 2)
[21] = complete media, FDA drug library screen (TABLE 2)
[22] = complete media minus cholesterol-free media + simvastatin (0.04 μM), >0 enhanced anti-cancer activity, about 0 neutral, <0 antagonist
[23] = Complete minus Cholesterol-free, >0 enhanced anti-cancer activity, about 0 neutral, <0 antagonist

Cc1ncc(COP(=O)(O)O)c(C=O)c1O [Pyridoxal phosphate]
Cholesterol-free [1, 3]: 1.045 | Complete [1, 4]: 1.512 | Difference [1, 5]: 0.47 | Cholesterol-free media + simvastatin (0.04 μM) [2, 6]: 1.11 | Complete Media ([2]; drug in complete media): 0.9056 | Difference [2, 7]: −0.20

Cc1ncc(CO)c(CO)c1O.Cl [Pyridoxine (hydrochloride)]
Difference ([1]; Complete minus Cholesterol-free, […]): −0.61 | Cholesterol-free ([1]; NCI-H292 cells in cholesterol-free media without statin): 1.496 | Complete ([1]; NCI-H292 cells in complete media): 0.8868 | Cholesterol-free media + simvastatin (0.04 μM) [2, 8]: 1.33 | Complete Media [2, 9]: 0.9936 | Difference ([2]; complete media vs cholesterol-free media + simvastatin (0.04 μM), […]): −0.34

CCc1nc(N)nc(N)c1-c1ccc(Cl)cc1 [Pyrimethamine]
Cholesterol-free [1, 3]: 1.197 | Complete [1, 4]: 1.426 | Difference [1, 5]: 0.23 | Cholesterol-free media + simvastatin (0.04 μM) [2, 6]: 1.205 | Complete Media ([2]; drug in complete media): 1.02 | Difference [2, 7]: −0.19

Cc1ncc(CSSCc2cnc(C)c(O)c2CO)c(CO)c1O [Pyrithioxin (dihydrochloride)]
Cholesterol-free [1, 3]: 0.8349 | Complete [1, 4]: 1.062 | Difference [1, 5]: 0.23 | Cholesterol-free media + simvastatin (0.04 μM) [2, 10]: 0.9622 | Complete Media [2, 11]: 1.11 | Difference [2, 12]: 0.15

Cl.Cl.[O-][S+]1c2ccccc2N=C(N2CCN(CCOCCO)CC2)c2ccccc21 (stereo not shown) [Quetiapine sulfoxide (dihydrochloride)]
Cholesterol-free [1, 13]: 1.151 | Complete ([1]; NCI-H292 cells, complete media): 0.7759 | Difference [1, 14]: −0.38 | Cholesterol-free media + simvastatin (0.04 μM) [2, 10]: 1.184 | Complete Media [2, 11]: 1.082 | Difference [2, 7]: −0.10

OCCOCCN1CCN(C2=Nc3ccccc3Sc3ccccc32)CC1 [Quetiapine]
Difference [1, 15]: −0.09 | Cholesterol-free [1, 16]: 0.8483 | Complete [1, 17]: 0.7581 | Cholesterol-free media + simvastatin (0.04 μM) [2, 18]: 0.8037 | Complete Media [2, 19]: 0.9281 | Difference [2, 12]: 0.12

CCCN1CC(NS(=O)(=O)N(CC)CC)CC2Cc3c(O)cccc3CC21 (stereo not shown) [Quinagolide (hydrochloride)]
Difference [1, 15]: −0.15 | Cholesterol-free [1, 16]: 1.129 | Complete [1, 17]: 0.9753 | Cholesterol-free media + simvastatin (0.04 μM) [2, 18]: 0.9283 | Complete Media [2, 19]: 1.019 | Difference [2, 12]: 0.09

CCOC(=O)[C@H](CCc1ccccc1)N[C@@H](C)C(=O)N1Cc2ccccc2C[C@H]1C(=O)O [Quinapril (hydrochloride)]
Cholesterol-free [1, 3]: 0.6191 | Complete [1, 4]: 0.9945 | Difference [1, 5]: 0.38 | Cholesterol-free media + simvastatin (0.04 μM) [2, 8]: 1.23 | Complete Media [2, 9]: 0.862 | Difference [2, 7]: −0.37

C#C[C@]1(O)CC[C@H]2[C@@H]3CCc4cc(OC5CCCC5)ccc4[C@H]3CC[C@@]21C [Quinestrol]
Cholesterol-free [1, 13]: 1.478 | Complete ([1]; NCI-H292 cells, complete media): 1.012 | Difference [1, 14]: −0.47 | Cholesterol-free media + simvastatin (0.04 μM) [2, 20]: 0.01915 | Complete Media [2, 21]: 0.02153 | Difference [2, 22]: 0.00

C=C[C@H]1C[N@@]2CC[C@H]1C[C@@H]2[C@@H](O)c1ccnc2ccc(OC)cc12 [Quinidine hydrochloride monohydrate]
Difference [1, 23]: 0.01 | Cholesterol-free [1, 3]: 1.211 | Complete [1, 4]: 1.222 | Cholesterol-free media + simvastatin (0.04 μM) [2, 20]: 1.46 | Complete Media [2, 21]: 1.402 | Difference [2, 22]: −0.06

C=C[C@H]1C[N@@]2CC[C@H]1C[C@@H]2[C@@H](O)c1ccnc2ccc(OC)cc12 [Quinidine]
Complete [1, 4]: 1.951 | Difference [1, 5]: 0.93 | Complete Media [2, 9]: 0.8492 | Difference [2, 7]: −0.29

C=C[C@H]1C[N@@]2CC[C@H]1C[C@H]2[C@H](O)c1ccnc2ccc(OC)cc12 [Quinine (hydrochloride dihydrate)]
Difference [1, 23]: 0.03 | Cholesterol-free media + simvastatin (0.04 μM) [2, 10]: 1.208 | Difference [2, 7]: −0.15

C=C[C@H]1C[N@@]2CC[C@H]1C[C@H]2[C@H](O)c1ccnc2ccc(OC)cc12 [Quinine]
Cholesterol-free [1, 13]: 1.498 | Difference [1, 14]: −0.37 | Difference [2, 7]: −0.10

CC(C)(C)c1cc(NC(=O)Nc2ccc(-c3cn4c(n3)sc3cc(OCCN5CCOCC5)ccc34)cc2)no1 [Quizartinib]
Cholesterol-free [1, 3]: 0.663 | Complete [1, 4]: 0.7657 | Difference [1, 5]: 0.10 | Cholesterol-free media + simvastatin (0.04 μM) [2, 6]: 1.022 | Complete Media ([2]; drug in complete media): 0.8076 | Difference [2, 7]: −0.21

Source: patent publication US20250144067A1, “PERSONALIZED STARVATION THERAPY FOR CANCER” (Faeth Therapeutics, Inc., priority 2021, published 2025)
